# Assay results reported in patent publication US9062047B2, “Crystalline form of pyrimido[6,1-A] isoquinolin-4-one compound” (Verona Pharma plc, priority 2010, dated 2015).
# Tests used:
# [1] = Thermodynamic aqueous solubility by HPLC; assay type: physicochemical; details: purified water; for Aqueous solubility: pH 7, 25° C., 24 hours, 20 mg in 1 ml
# Method: Thermodynamic Aqueous Solubility by HPLC: Aqueous solubility was determined by suspending sufficient compound in HPLC grade water to give a maximum final concentration of ≧20 mg ml^−1 of the parent compound. The suspension was equilibrated at 25° C. for 24 hours. The suspension was then filtered through a filter into a HPLC vial. The filtrate was then diluted by an appropriate factor. Quantification was executed by HPLC with reference to a standard solution of approximately 0.5 mg ml^−1 in Acetonitrile:Water: (1:1). Different volumes of the standard, diluted and undiluted sample solutions were injected. The solubility was calculated using the peak areas determined by integration of the peak found at the same retention time as the principal peak in the standard injection.
# Analysis was performed on an Agilent 1100 series liquid chromatography, equipped with a UV detector (DAD or VWD) @254 nm and using Chemstation Rev.B.01.03 software for data processing. Chemical purity determination by HPLC.
# As amorphous material and Form I were in hand, both samples were exposed to a straight forward aqueous solubility study in purified water at 25° C. This experiment was performed as it was unknown whether crystalline or amorphous material was initially isolated in-house during a previous synthesis campaign.
# • A suspension of 20 mg of the candidate was mixed in purified water (1 ml, pH 7). The suspension was equilibrated at 25° C. for 24 hours. The suspension was then filtered into an HPLC vial and the filtrate then diluted by an appropriate factor with quantification being executed by HPLC with reference to a standard solution.
# [2] = polymorph A (marketed) vs form B; cited from earlier work
# [3] = Applied pressure (100 KN), XRPD and DSC; assay type: physicochemical; details: overnight, 10 mg
# Method: Applied pressure (100 KN): 10 mg of RPL554 was left in a pressing disc system overnight, forming a fine and uniform disc with a thickness of less than 0.1 mm. The disc was gently ground and analysed by XRPD (FIG. 13).
# [4] = Slurry maturation (heat/cool cycles), XRPD; assay type: physicochemical; details: 24 solvents, cycled 20° C./50° C., 8 hour periods, 4 days
# Method: 24× Slurry maturations were performed in an attempt to stress the current crystalline solid into undergoing form transformation.
# • Some 20 mg of material was agitated in glass tubes in approximately 30 volumes of solvent and cycled between isothermal periods (8 hours) of 20° C. and 50° C. After 4 days of cycling, the solids were filtered off and dried in vacuo at 45° C. prior to analysis by XRPD. All results were compared to the starting material, RPL554 (Form I); see Table 4.
# [5] = Crash cooling of a melt, LC/HPLC analysis (stability at temperature); assay type: physicochemical
# Method: As there was historical experimental proof of generating amorphous material by heating RPL554 Form I up to 245° C. and rapidly cooling the melt, a repeat of this method was performed (TGA basis) and produced the same, clear, yellow, glass like material.
# A proposed glass transition can be observed at approximately 120° C., with no formal recrystallisation observed. While this experiment was running, the sample was submitted for LC analysis, as stability at temperature was known to be a potential issue (observation of TGA). […] The experiment was repeated at a lower temperature (240° C.), this trying to avoid decomposition and thus return a better profile in terms of purity. LC analysis returned a similar profile of very low purity and various secondary products. It was therefore apparent that amorphous material would not be generated in this manner.
smiles,measurement,setting,value
COc1cc2c(cc1OC)-c1c/c(=N\c3c(C)cc(C)cc3C)n(CCNC(N)=O)c(=O)n1CC2 [JN376F],Aqueous solubility compared with Form I,[1]; 25° C.,more soluble than Form I
same,Aqueous solubility,[1],30 µg/mL
CCCCCCCCCCCCCCCC(=O)OC[C@@H](NC(=O)C(Cl)Cl)[C@H](O)c1ccc([N+](=O)[O-])cc1 [Chloramphenicol-3-palmitate],Difference in bio-activity between form A and form B,[2],eight
"COc1cc2c(cc1OC)-c1c/c(=N\c3c(C)cc(C)cc3C)n(CCNC(N)=O)c(=O)n1CC2 [RPL554, N-{2-[(2E)-2-(mesitylimino)-9,10-dimethoxy-4-oxo-6,7-dihydro-2H-pyrimido[6,1-a]-isoquinolin-3 (4H)-yl]ethyl}urea]",Form change under applied pressure (XRPD),[3],generates an amorphous phase
same,Aqueous solubility,[1],1 µg/mL
same,Form change on slurry maturation (XRPD),[4],extremely resilient to change
same,Product by HPLC analysis after crash cooling a melt,"[5]; crash cooled melt, amorphous by XRPD",< 20%
same,Starting material remaining by LC after crash cooled melt,[5]; heated up to 245° C. and rapidly cooled,26%
